Reference: PubChem BioAssay AID248 (DTP/NCI, 2004)
Inconclusive results and toxic doses are left out. Cut-off read from the data, not from the text of the source: active = T/C of 150% or more; inactive = T/C below 125%.

Tested on: L1210 leukemia ip in BDF1 mice, survival T/C
Test: NCI In Vivo Anticancer Drug Screen. Data for tumor model L1210 Leukemia (intraperitoneal) in B6D2F1 (BDF1) mice
Conditions: endpoint: mean survival time, higher = longer survival
In short: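 Transplantable tumor model; survival measured in treated vs vehicle control mice. Value = treated/control.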

[1] = dose: 50.0 mg/kg/injection, schedule: Q01DX001 (ip), vehicle: carboxymethylcellulose (CMC)
[2] = dose: 100.0 mg/kg/injection, schedule: Q01DX001 (ip), vehicle: carboxymethylcellulose (CMC)
[3] = dose: 200.0 mg/kg/injection, schedule: Q01DX001 (ip), vehicle: carboxymethylcellulose (CMC)
[4] = dose: 400.0 mg/kg/injection, schedule: Q01DX001 (ip), vehicle: carboxymethylcellulose (CMC)
[5] = dose: 100.0 mg/kg/injection, schedule: Q01DX009 (ip), vehicle: saline with Tween-80
[6] = dose: 200.0 mg/kg/injection, schedule: Q01DX009 (ip), vehicle: saline with Tween-80
[7] = dose: 100.0 mg/kg/injection, schedule: Q01DX001 (ip), vehicle: saline
[8] = dose: 100.0 mg/kg/injection, schedule: Q01DX009 (ip), vehicle: Klucel (hydroxypropylcellulose) (HPC)
[9] = dose: 100.0 mg/kg/injection, schedule: Q04DX003 (ip), vehicle: Klucel (hydroxypropylcellulose) (HPC)
[10] = dose: 200.0 mg/kg/injection, schedule: Q01DX009 (ip), vehicle: Klucel (hydroxypropylcellulose) (HPC)
[11] = dose: 200.0 mg/kg/injection, schedule: Q04DX003 (ip), vehicle: Klucel (hydroxypropylcellulose) (HPC)
[12] = dose: 400.0 mg/kg/injection, schedule: Q01DX009 (ip), vehicle: Klucel (hydroxypropylcellulose) (HPC)
[13] = dose: 400.0 mg/kg/injection, schedule: Q04DX003 (ip), vehicle: Klucel (hydroxypropylcellulose) (HPC)
[14] = dose: 100.0 mg/kg/injection, schedule: Q01DX009 (ip), vehicle: saline
[15] = dose: 200.0 mg/kg/injection, schedule: Q01DX009 (ip), vehicle: saline
[16] = dose: 100.0 mg/kg/injection, schedule: Q01DX001 (ip), vehicle: Klucel (hydroxypropylcellulose) (HPC)
[17] = dose: 200.0 mg/kg/injection, schedule: Q01DX001 (ip), vehicle: Klucel (hydroxypropylcellulose) (HPC)
[18] = dose: 400.0 mg/kg/injection, schedule: Q01DX001 (ip), vehicle: Klucel (hydroxypropylcellulose) (HPC)

Measured: T/C

c1ccc2c(c1)c1c(c3ccccc32)CN2CCCC2C1 (centres undefined)
inactive: [1] 105 % of control | [2] 105 % of control | [3] 92 % of control | [4] 103 % of control

CNC(=O)Nc1cccc(OC(=O)NC(C)(C)C)c1
inactive: [5] 91 % of control | [6] 93 % of control

CCCCCN(CCCCC)CC(O)C1c2ccccc2Cc2ccccc21 (centres undefined)
inactive: dose: 5.0 mg/kg/injection, schedule: Q01DX001 (ip), vehicle: saline 102 % of control | dose: 10.0 mg/kg/injection, schedule: Q01DX001 (ip), vehicle: saline 98 % of control | dose: 20.0 mg/kg/injection, schedule: Q01DX001 (ip), vehicle: saline 102 % of control | dose: 40.0 mg/kg/injection, schedule: Q01DX001 (ip), vehicle: saline 104 % of control | [7] 101 % of control

N=C(N)SCCSC(=N)N
inactive: dose: 100.0 mg/kg/injection, schedule: Q04DX003 (ip), vehicle: saline sonified 93 % of control

O=C(CCl)COP(=O)(O)O
inactive: dose: 6.25 mg/kg/injection, schedule: Q01DX009 (ip), vehicle: other 102 % of control | dose: 12.5 mg/kg/injection, schedule: Q01DX001 (ip), vehicle: other 102 % of control | dose: 12.5 mg/kg/injection, schedule: Q01DX009 (ip), vehicle: other 91 % of control | dose: 12.5 mg/kg/injection, schedule: Q04DX003 (ip), vehicle: other 91 % of control | dose: 25.0 mg/kg/injection, schedule: Q01DX001 (ip), vehicle: other 91 % of control | dose: 25.0 mg/kg/injection, schedule: Q01DX009 (ip), vehicle: other 101 % of control | dose: 25.0 mg/kg/injection, schedule: Q04DX003 (ip), vehicle: other 88 % of control | dose: 50.0 mg/kg/injection, schedule: Q01DX001 (ip), vehicle: other 96 % of control | dose: 50.0 mg/kg/injection, schedule: Q01DX009 (ip), vehicle: other 114 % of control | dose: 50.0 mg/kg/injection, schedule: Q04DX003 (ip), vehicle: other 93 % of control | dose: 100.0 mg/kg/injection, schedule: Q01DX001 (ip), vehicle: other 89 % of control | dose: 100.0 mg/kg/injection, schedule: Q04DX003 (ip), vehicle: other 106 % of control

CC1CC(C)(C)N=C(CCC[N+](=O)[O-])O1 (centres undefined)
inactive: dose: 200.0 mg/kg/injection, schedule: Q04DX003 (ip), vehicle: other 103 % of control | dose: 400.0 mg/kg/injection, schedule: Q04DX003 (ip), vehicle: other 88 % of control

CCOc1ccc([N+](=O)[O-])cn1
inactive: [8] 101 % of control | [9] 93 % of control | [10] 102 % of control | [11] 104 % of control | [12] 106 % of control | [13] 93 % of control

O=S(=O)(NOCCCCONS(=O)(=O)c1ccccc1)c1ccccc1
inactive: dose: 100.0 mg/kg/injection, schedule: Q01DX001 (ip), vehicle: saline with Tween-80 88 % of control | dose: 200.0 mg/kg/injection, schedule: Q01DX001 (ip), vehicle: saline with Tween-80 95 % of control | dose: 400.0 mg/kg/injection, schedule: Q01DX001 (ip), vehicle: saline with Tween-80 97 % of control

COC(=O)C1Oc2ccc(Cl)cc2Cc2cc(Cl)ccc2O1
inactive: [8] 93 % of control | [9] 100 % of control | [10] 93 % of control | [11] 93 % of control | [12] 93 % of control | [13] 90 % of control

O=C1NC(=O)C(O)(O)C(=O)N1
inactive: [14] 104 % of control | [15] 93 % of control

CSc1ccc(OC2CCCCC2OS(C)(=O)=O)cc1 (centres undefined)
inactive: [16] 102 % of control | [8] 98 % of control | [9] 107 % of control | [17] 102 % of control | [10] 98 % of control | [11] 91 % of control | [18] 94 % of control | [12] 96 % of control | [13] 96 % of control

O=C1C(=O)C2=C(NCCC2)C(O)=C1Cl
inactive: dose: 100.0 mg/kg/injection, schedule: Q01DX001 (ip), vehicle: water 93 % of control | dose: 200.0 mg/kg/injection, schedule: Q01DX001 (ip), vehicle: water 95 % of control | dose: 400.0 mg/kg/injection, schedule: Q01DX001 (ip), vehicle: water 98 % of control

O=C(O)C1CCC2SC(F)(F)C(F)(F)C2C1 (centres undefined)
inactive: dose: 100.0 mg/kg/injection, schedule: Q04DX003 (ip), vehicle: saline with Tween-80 98 % of control | dose: 200.0 mg/kg/injection, schedule: Q04DX003 (ip), vehicle: saline with Tween-80 96 % of control | dose: 400.0 mg/kg/injection, schedule: Q04DX003 (ip), vehicle: saline with Tween-80 98 % of control

CCOC(=O)C(F)=C(CF)CF
inactive: [1] 105 % of control | [2] 111 % of control | [3] 109 % of control | [4] 94 % of control

COc1cc(C)c(C)cc1C(C)C(C)C(=O)O (centres undefined)
inactive: [9] 97 % of control | [11] 98 % of control | [13] 98 % of control

CCOC(=O)CCC[P+](c1ccccc1)(c1ccccc1)c1ccccc1
inactive: [5] 107 % of control | [6] 113 % of control

COC(=O)C(C(=O)Oc1ccc([N+](=O)[O-])cc1)c1ccccc1 (centres undefined)
inactive: [16] 97 % of control | [9] 101 % of control | [17] 97 % of control | [10] 102 % of control | [11] 103 % of control | [18] 100 % of control | [12] 109 % of control | [13] 101 % of control

O=C1CSC(=S)N1c1ccco1
inactive: [14] 102 % of control | dose: 100.0 mg/kg/injection, schedule: Q04DX003 (ip), vehicle: saline 93 % of control | [15] 102 % of control | dose: 200.0 mg/kg/injection, schedule: Q04DX003 (ip), vehicle: saline 88 % of control | dose: 400.0 mg/kg/injection, schedule: Q04DX003 (ip), vehicle: saline 93 % of control

NC(CSS(=O)(=O)O)=NCCCc1c[nH]c2ccccc12
inactive: dose: 12.5 mg/kg/injection, schedule: Q04DX002 (ip), vehicle: Klucel (hydroxypropylcellulose) (HPC) 100 % of control | dose: 25.0 mg/kg/injection, schedule: Q04DX002 (ip), vehicle: Klucel (hydroxypropylcellulose) (HPC) 107 % of control | dose: 50.0 mg/kg/injection, schedule: Q04DX002 (ip), vehicle: Klucel (hydroxypropylcellulose) (HPC) 107 % of control

Cc1cc(Cl)ccc1OC(=O)NC1CCCCC1
inactive: dose: 100.0 mg/kg/injection, schedule: Q04DX002 (ip), vehicle: Klucel (hydroxypropylcellulose) (HPC) 107 % of control | dose: 200.0 mg/kg/injection, schedule: Q04DX002 (ip), vehicle: Klucel (hydroxypropylcellulose) (HPC) 96 % of control | dose: 400.0 mg/kg/injection, schedule: Q04DX002 (ip), vehicle: Klucel (hydroxypropylcellulose) (HPC) 107 % of control

O=S(=O)(Nc1ncccn1)c1ccc(N=Nc2ccc(O)c3ncccc23)cc1
inactive: [7] 100 % of control | dose: 200.0 mg/kg/injection, schedule: Q01DX001 (ip), vehicle: saline 103 % of control | dose: 400.0 mg/kg/injection, schedule: Q01DX001 (ip), vehicle: saline 103 % of control
